Test results as given in US9296711B2, “Substituted isoxazole amide compounds as inhibitors of stearoyl-CoA desaturase 1 (SCD1)” (Hoffman-La Roche Inc., priority 2012, dated 2016).
pIC50: −log10 of the molar value.

molecular target: T1, SCD1 (Mus musculus, UniProt P13516); experiment: SCD assay: release of tritiated water from desaturation of 9,10-3H-stearoyl CoA by mouse liver microsomes; assay type: biochemical; conditions: mouse liver microsomes as SCD source; 300 nM (9,10)3H-stearoyl CoA; 25 minutes at room temperature; read-out: IC50 (in vitro inhibition of SCD1)
T1 construct: Mouse liver microsomes, prepared from mice fed a high-carbohydrate diet, were a source of the SCD; from tissue; host or cells: mouse liver microsomes (mice fed a high-carbohydrate diet)
T1 sequence (P13516 1-355): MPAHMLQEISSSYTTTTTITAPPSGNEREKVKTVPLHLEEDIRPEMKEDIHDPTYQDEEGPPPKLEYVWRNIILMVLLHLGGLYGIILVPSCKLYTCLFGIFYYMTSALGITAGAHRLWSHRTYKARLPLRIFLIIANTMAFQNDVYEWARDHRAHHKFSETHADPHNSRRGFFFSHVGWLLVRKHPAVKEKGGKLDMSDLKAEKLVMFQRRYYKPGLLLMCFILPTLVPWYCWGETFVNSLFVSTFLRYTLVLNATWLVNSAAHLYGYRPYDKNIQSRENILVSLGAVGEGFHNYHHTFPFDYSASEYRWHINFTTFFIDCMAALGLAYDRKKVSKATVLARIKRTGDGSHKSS
Excerpt: Stearoyl CoA desaturase activity was monitored by a modification of the acyl carrier protein assay described by B. R. Talamo and K. Bloch in Anal. Biochem. 1968, 29, 300-304. The SCD assay monitors the release of tritiated water from the desaturation of 9,10-^3H-stearoyl CoA.
Mouse liver microsomes, prepared from mice fed a high-carbohydrate diet, were a source of the SCD and cyt b5 and cyt b5 reductase, necessary accessory proteins for the coupled reaction. Reaction mixtures for compound titrations contained 50 mM Tris HCl pH 7.5, 100 mM NaCl, 0.165 mg/ml BSA, 2.4% DMSO, 1 mM NADH, 0.03% T-20, and 300 nM (9,10)^3H-stearoyl CoA (Perkin-Elmer). Reactions were initiated upon the addition of 4 ug/ml SCD microsomes. Incubations were terminated after 25 minutes at room temperature with cold 6% TCA. After standing 10 minutes at 4° C., samples were centrifuged 15 minutes at 4000 rpm to pellet precipitated protein. Supernatants were added to microtiter plates containing suspensions of activated charcoal (Darco G-60, Fisher Scientific) and mixed by inversion. Plates were then centrifuged to separate ^3H—H2O product from charcoal-bound reactants. Supernatants were quantitated in a Perkin Elmer Topcount 384 after solubilization in ScintiSafe Plus 50% (Fisher Scientific).
Inhibition (%) of SCD activity by compounds was calculated according to the following formula: % Inhibition=100*[1−(CPMsample−CPMblank)/(CPMtotal−CPMblank)]

pIC50	SMILES
6.32	NC(=O)c1cc(-c2ccc(OCc3ccccc3SC(F)(F)F)cc2)no1 [Example 1, 3-[4-(2-Trifluoromethylsulfanyl-benzyloxy)-phenyl]-isoxazole-5-carboxylic acid amide]
6.24	NC(=O)c1cc(-c2ccc(OCc3ccccc3[S+]([O-])C(F)(F)F)cc2)no1 (stereo not shown) [Example 2, 3-[4-(2-Trifluoromethanesulfinyl-benzyloxy)-phenyl]-isoxazole-5-carboxylic acid amide]
6.07	COc1ccccc1COc1ccc(-c2cc(C(N)=O)on2)cc1 [Example 3, 3-[4-(2-Methoxy-benzyloxy)-phenyl]-isoxazole-5-carboxylic acid amide]
5.57	Cc1ccc(COc2ccc(-c3cc(C(N)=O)on3)cc2)cc1C [Example 4, 3-[4-(3,4-Dimethyl-benzyloxy)-phenyl]-isoxazole-5-carboxylic acid amide]
6.01	N#Cc1ccccc1COc1ccc(-c2cc(C(N)=O)on2)cc1 [Example 5, 3-[4-(2-Cyano-benzyloxy)-phenyl]-isoxazole-5-carboxylic acid amide]
5.59	NC(=O)c1cc(-c2ccc(OCc3c(Cl)cccc3Cl)cc2)no1 [Example 6, 3-[4-(2,6-Dichloro-benzyloxy)-phenyl]-isoxazole-5-carboxylic acid amide]
5.64	NC(=O)c1cc(-c2ccc(OCc3ccc(F)c(F)c3)cc2)no1 [Example 7, 3-[4-(3,4-Difluoro-benzyloxy)-phenyl]-isoxazole-5-carboxylic acid amide]
6.25	NC(=O)c1cc(-c2ccc(OCc3ccccc3F)cc2)no1 [Example 8, 3-[4-(2-Fluoro-benzyloxy)-phenyl]-isoxazole-5-carboxylic acid amide]
6.34	Cc1ccccc1COc1ccc(-c2cc(C(N)=O)on2)cc1 [Example 9, 3-[4-(2-Methyl-benzyloxy)-phenyl]-isoxazole-5-carboxylic acid amide]
6.68	NC(=O)c1cc(-c2ccc(OCc3ccccc3OC(F)(F)F)cc2)no1 [Example 10, 3-[4-(2-Trifluoromethoxy-benzyloxy)-phenyl]-isoxazole-5-carboxylic acid amide]
6.39	NC(=O)c1cc(-c2ccc(OCc3ccccc3I)cc2)no1 [Example 11, 3-[4-(2-Iodo-benzyloxy)-phenyl]-isoxazole-5-carboxylic acid amide]
5.51	NC(=O)c1cc(-c2ccc(OCc3c(F)cccc3Cl)cc2)no1 [Example 12, 3-[4-(2-Chloro-6-fluoro-benzyloxy)-phenyl]-isoxazole-5-carboxylic acid amide]
6.38	NC(=O)c1cc(-c2ccc(OCc3cc(F)ccc3Cl)cc2)no1 [Example 13, 3-[4-(2-Chloro-5-fluoro-benzyloxy)-phenyl]-isoxazole-5-carboxylic acid amide]
5.85	NC(=O)c1cc(-c2ccc(OCc3ccccc3Cl)cn2)no1 [Example 14, 3-[5-(2-Chloro-benzyloxy)-pyridin-2-yl]-isoxazole-5-carboxylic acid amide]
5.62	NC(=O)c1cc(-c2ccc(OCc3cccnc3Cl)cc2)no1 [Example 15, 3-[4-(2-Chloro-pyridin-3-ylmethoxy)-phenyl]-isoxazole-5-carboxylic acid amide]
5.85	NC(=O)c1cc(-c2ccc(OCc3cccc(C(F)(F)F)c3)cc2)no1 [Example 17, 3-[4-(3-Trifluoromethyl-benzyloxy)-phenyl]-isoxazole-5-carboxylic acid amide]
5.82	NC(=O)c1cc(-c2ccc(OCc3cccc(Cl)c3)cc2)no1 [Example 18, 3-[4-(3-Chloro-benzyloxy)-phenyl]-isoxazole-5-carboxylic acid amide]

pIC50	SMILES
6.55	NC(=O)c1cc(-c2ccc(OCc3ccccc3Cl)cc2)no1 [Example 19, 3-[4-(2-Chloro-benzyloxy)-phenyl]-isoxazole-5-carboxylic acid amide]
6.77	NC(=O)c1cc(-c2ccc(OCc3ccccc3Br)cc2)no1 [Example 20, 3-[4-(2-Bromo-benzyloxy)-phenyl]-isoxazole-5-carboxylic acid amide]
6.74	NC(=O)c1cc(-c2ccc(OCc3ccccc3C(F)(F)F)cc2)no1 [Example 21, 3-[4-(2-Trifluoromethyl-benzyloxy)-phenyl]-isoxazole-5-carboxylic acid amide]
5.82	CS(=O)(=O)c1ccccc1COc1ccc(-c2cc(C(N)=O)on2)cc1 [Example 22, 3-[4-(2-Methanesulfonyl-benzyloxy)-phenyl]-isoxazole-5-carboxylic acid amide]
6.54	NC(=O)c1cc(-c2ccc(COc3cccc(Cl)c3)cc2)no1 [Example 24, 3-[4-(3-Chloro-phenoxymethyl)-phenyl]-isoxazole-5-carboxylic acid amide]
5.89	NC(=O)c1cc(-c2ccc(COc3ccc(Cl)cc3)cc2)no1 [Example 25, 3-[4-(4-Chloro-phenoxymethyl)-phenyl]-isoxazole-5-carboxylic acid amide]
7.18	Cc1ccccc1OCc1ccc(-c2cc(C(N)=O)on2)cc1 [Example 26, 3-(4-o-Tolyloxymethyl-phenyl)-isoxazole-5-carboxylic acid amide]
6.25	Cc1cccc(OCc2ccc(-c3cc(C(N)=O)on3)cc2)c1 [Example 27, 3-(4-m-Tolyloxymethyl-phenyl)-isoxazole-5-carboxylic acid amide]
6.77	COc1ccccc1OCc1ccc(-c2cc(C(N)=O)on2)cc1 [Example 28, 3-[4-(2-Methoxy-phenoxymethyl)-phenyl]-isoxazole-5-carboxylic acid amide]
6.47	COc1cccc(OCc2ccc(-c3cc(C(N)=O)on3)cc2)c1 [Example 29, 3-[4-(3-Methoxy-phenoxymethyl)-phenyl]-isoxazole-5-carboxylic acid amide]
5.48	COc1ccc(OCc2ccc(-c3cc(C(N)=O)on3)cc2)cc1 [Example 30, 3-[4-(4-Methoxy-phenoxymethyl)-phenyl]-isoxazole-5-carboxylic acid amide]
5.72	Cc1cccc(C)c1OCc1ccc(-c2cc(C(N)=O)on2)cc1 [Example 31, 3-[4-(2,6-Dimethyl-phenoxymethyl)-phenyl]-isoxazole-5-carboxylic acid amide]
6.42	CC(C)c1ccccc1OCc1ccc(-c2cc(C(N)=O)on2)cc1 [Example 32, 3-[4-(2-Isopropyl-phenoxymethyl)-phenyl]-isoxazole-5-carboxylic acid amide]
6.33	NC(=O)c1cc(-c2ccc(COc3ccccc3OC(F)(F)F)cc2)no1 [Example 33, 3-[4-(2-Trifluoromethoxy-phenoxymethyl)-phenyl]-isoxazole-5-carboxylic acid amide]
6.68	CCc1ccccc1OCc1ccc(-c2cc(C(N)=O)on2)cc1 [Example 34, 3-[4-(2-Ethyl-phenoxymethyl)-phenyl]-isoxazole-5-carboxylic acid amide]
6.19	CC(C)(C)c1ccccc1OCc1ccc(-c2cc(C(N)=O)on2)cc1 [Example 35, 3-[4-(2-tert-Butyl-phenoxymethyl)-phenyl]-isoxazole-5-carboxylic acid amide]
6.59	NC(=O)c1cc(-c2ccc(COc3ccccc3C(F)(F)F)cc2)no1 [Example 36, 3-[4-(2-Trifluoromethyl-phenoxymethyl)-phenyl]-isoxazole-5-carboxylic acid amide]
